Reference: ChEMBL document CHEMBL1201862, “PubChem BioAssay data set” (2004)
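Compound exposure: 48 hours, 5 concentrations, 96-well plates. GI50: concentration for 50% inhibition of growth.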 Activity calls are given as the source filed them. Rule as the data show it: active = GI50 up to about 1.1 µM and inactive = higher.

How the values were obtained:
Experiment in all cases: NCI anticancer screen, dose series, 48 h
OVCAR-3 = test system: OVCAR-3
M14 = test system: M14
DU-145 = test system: DU-145
MDA-MB-435 = test system: MDA-MB-435
SF-268 = test system: SF-268
SK-MEL-28 = test system: SK-MEL-28
HCC 2998 = test system: HCC 2998
UACC-257 = test system: UACC-257
SF-295 = test system: SF-295
KM12 = test system: KM12
K562 = test system: K562
PC-3 = test system: PC-3
NCI-H460 = test system: NCI-H460
HT-29 = test system: HT-29
NCI/ADR-RES = test system: NCI/ADR-RES
A498 = test system: A498
LOX IMVI = test system: LOX IMVI
786-0 = test system: 786-0
SK-MEL-2 = test system: SK-MEL-2
HCT-116 = test system: HCT-116

Compound	GI50 (OVCAR-3)	GI50 (M14)	GI50 (DU-145)	GI50 (MDA-MB-435)	GI50 (SF-268)	GI50 (SK-MEL-28)	GI50 (HCC 2998)	GI50 (UACC-257)	GI50 (SF-295)	GI50 (KM12)	GI50 (K562)	GI50 (PC-3)	GI50 (NCI-H460)	GI50 (HT-29)	GI50 (NCI/ADR-RES)	GI50 (A498)	GI50 (LOX IMVI)	GI50 (786-0)	GI50 (SK-MEL-2)	GI50 (HCT-116)
CC1(C)CN(CC(=O)O)CC(Cc2ccc(OCC(=O)O)cc2)N(CC(=O)O)CC(C)(C)SS1 (stereo not given)	> 100 µM (inactive)	> 100 µM (inactive)	> 100 µM (inactive)	> 100 µM (inactive)	> 100 µM (inactive)	> 100 µM (inactive)	> 100 µM (inactive)	> 100 µM (inactive)	> 100 µM (inactive)	> 100 µM (inactive)	> 100 µM (inactive)	> 100 µM (inactive)	> 100 µM (inactive)	> 100 µM (inactive)	> 100 µM (inactive)	> 100 µM (inactive)	> 100 µM (inactive)	> 100 µM (inactive)	> 100 µM (inactive)	> 100 µM (inactive)
CC(C)(C)OC(=O)N/N=C(/N)Cc1ccc(Cl)cc1	> 100 µM (inactive)	> 100 µM (inactive)	> 100 µM (inactive)	> 100 µM (inactive)	> 100 µM (inactive)	> 100 µM (inactive)	> 100 µM (inactive)	> 100 µM (inactive)	> 100 µM (inactive)	> 100 µM (inactive)	37.2 µM (inactive)	> 100 µM (inactive)	> 100 µM (inactive)	73.1 µM (inactive)	> 100 µM (inactive)	> 100 µM (inactive)	> 100 µM (inactive)	> 100 µM (inactive)	> 100 µM (inactive)	> 100 µM (inactive)
CC[C@H](C)[C@H]1NC(=O)[C@@H](NC(=O)[C@@H](CC(C)C)N(C)C(=O)C2CCCN2C(=O)[C@H](C)O)[C@@H](C)OC(=O)[C@@H]2Cc3ccccc3CN2C(=O)[C@@H]2CCCN2C(=O)[C@H](CC(C)C)NC(=O)[C@@H](C)C(=O)[C@H](C(C)C)OC(=O)C[C@@H]1O (stereo not given in full)	0.286 µM (active)	1.17 µM (inactive)	0.341 µM (active)	0.374 µM (active)	0.327 µM (active)	0.231 µM (active)	0.154 µM (active)	0.351 µM (active)	1.06 µM (active)	0.104 µM (active)	0.175 µM (active)	0.317 µM (active)	0.171 µM (active)	0.258 µM (active)	> 100 µM (inactive)	0.871 µM (active)	0.361 µM (active)	0.368 µM (active)	0.205 µM (active)	0.144 µM (active)
Cc1c2c(OCCN3CCCCC3)nn(C)c(=O)c2c(C)n1-c1ccccc1	77.6 µM (inactive)	18.5 µM (inactive)	52.7 µM (inactive)	32.3 µM (inactive)	53.1 µM (inactive)	25.9 µM (inactive)	28.1 µM (inactive)	22.1 µM (inactive)	21.2 µM (inactive)	32.7 µM (inactive)	27.7 µM (inactive)	30.1 µM (inactive)	39.2 µM (inactive)	30.9 µM (inactive)	42.4 µM (inactive)	16.4 µM (inactive)	21.8 µM (inactive)	18.8 µM (inactive)	17 µM (inactive)	38.6 µM (inactive)
